Test results published in the Kinase Knowledgebase extract (Sharma et al. 2016).

What was measured:
PIK3CA (human) [1] = target: PIK3CA (human) (UniProt P42336); assay: Inhibition of PIK3CA Kinase Activity
PIK3CA (human) [2] = target: PIK3CA (human) (UniProt P42336); assay: Inhibition of A2780 Cell Proliferation

Chain of PIK3CA (human) (P42336 whole entry, looked up): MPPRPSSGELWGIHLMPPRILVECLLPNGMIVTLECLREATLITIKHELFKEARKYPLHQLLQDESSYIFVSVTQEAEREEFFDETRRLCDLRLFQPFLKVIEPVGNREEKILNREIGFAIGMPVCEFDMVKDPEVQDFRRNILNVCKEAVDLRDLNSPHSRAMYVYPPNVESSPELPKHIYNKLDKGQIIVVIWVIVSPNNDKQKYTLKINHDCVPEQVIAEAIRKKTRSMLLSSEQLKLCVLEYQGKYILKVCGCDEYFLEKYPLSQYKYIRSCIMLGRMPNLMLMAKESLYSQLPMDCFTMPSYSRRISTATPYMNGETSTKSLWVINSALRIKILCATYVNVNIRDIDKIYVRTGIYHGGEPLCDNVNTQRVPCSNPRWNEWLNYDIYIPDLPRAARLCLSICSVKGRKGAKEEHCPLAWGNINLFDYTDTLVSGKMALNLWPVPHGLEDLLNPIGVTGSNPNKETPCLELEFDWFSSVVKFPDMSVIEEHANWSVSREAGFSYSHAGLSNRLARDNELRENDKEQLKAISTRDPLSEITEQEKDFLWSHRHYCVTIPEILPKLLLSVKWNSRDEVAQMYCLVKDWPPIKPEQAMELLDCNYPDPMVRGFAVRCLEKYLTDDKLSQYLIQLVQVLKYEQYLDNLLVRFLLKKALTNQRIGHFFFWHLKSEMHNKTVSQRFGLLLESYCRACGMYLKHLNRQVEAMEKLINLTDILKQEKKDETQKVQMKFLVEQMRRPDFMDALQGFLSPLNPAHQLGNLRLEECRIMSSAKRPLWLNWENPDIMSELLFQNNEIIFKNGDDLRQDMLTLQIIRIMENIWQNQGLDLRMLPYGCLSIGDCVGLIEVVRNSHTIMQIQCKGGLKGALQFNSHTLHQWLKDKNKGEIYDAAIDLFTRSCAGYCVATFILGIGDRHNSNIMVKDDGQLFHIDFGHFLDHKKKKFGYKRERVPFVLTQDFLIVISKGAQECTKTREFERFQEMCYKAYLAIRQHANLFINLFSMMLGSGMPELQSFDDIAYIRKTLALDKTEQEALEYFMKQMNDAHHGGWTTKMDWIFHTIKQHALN

| SMILES | IC50 (PIK3CA (human) [1]) | EC50 (PIK3CA (human) [2]) |
| --- | --- | --- |
| NCC(=O)Nc1cn2cc(-c3cnc(N)c(C(F)(F)F)c3)ccc2n1 | < 1000 nM | < 10000 nM |
| CC(=O)Nc1nc2ccc(-c3cnc(N)c(C(=O)N4CCOCC4)c3)cc2s1 | < 1000 nM | < 10000 nM |
| COC(=O)C1CCN(C(=O)Nc2cn3cc(-c4cnc(N)c(C(F)(F)F)c4)ccc3n2)C1 (centres undefined) | < 1000 nM | < 10000 nM |
| COc1cc(-c2ccc3nc(NC(C)=O)cn3c2C)cnc1N | < 1000 nM | < 25000 nM |
| CC(=O)Nc1nc2ccc(-c3cnc(N)c(C(F)(F)F)c3)cn2c1C#Cc1ccccc1 | < 1000 nM | < 10000 nM |
| CC(=O)Nc1cn2cc(-c3cnc(N)c(C=NN(C)C)c3)ccc2n1 | < 1000 nM | < 10000 nM |
| CC(=O)Nc1nc2ccc(-c3cnc(N)c(F)c3)cc2s1 | < 1000 nM | < 10000 nM |
| CC(=O)Nc1cn2cc(-c3cnc(N)c(-c4ccc(F)cc4)c3)ccc2n1 | < 1000 nM | < 25000 nM |
| NC(=O)Nc1cn2cc(-c3cnc(N)c(C(F)(F)F)c3)ccc2n1 | < 1000 nM | < 10000 nM |
| N#Cc1cccc(C(=O)Nc2cn3cc(-c4cnc(N)c(C(F)(F)F)c4)ccc3n2)c1 | < 1000 nM | < 10000 nM |
| CC(C)(C)OC(=O)NCC(=O)Nc1cn2nc(-c3cnc(N)c(C(F)(F)F)c3)ccc2n1 | < 1000 nM | < 10000 nM |
| CCCNc1ccc(-c2ccc3nc(NC(C)=O)sc3c2)cn1 | < 1000 nM | < 25000 nM |
| CC(=O)Nc1cn2cc(-c3cnc(N)c(C(=O)N4CCN(C(=O)OC(C)(C)C)CC4)c3)ccc2n1 | < 1000 nM | < 25000 nM |
| CCN(CC)CC#Cc1c(NC(C)=O)nc2ccc(-c3cnc(N)c(C(F)(F)F)c3)cn12 | < 1000 nM | < 10000 nM |
| CC(C)(C)OC(=O)N1CCC(OCC(=O)Nc2cn3cc(-c4cnc(N)c(C(F)(F)F)c4)ccc3n2)CC1 | < 1000 nM | < 10000 nM |
| CC(=O)Nc1cn2cc(-c3cnc(N)c(Cl)c3)ccc2n1 | < 1000 nM | < 10000 nM |
| Nc1ncc(-c2ccc3nc(NC(=O)C4CCN4)cn3c2)nc1OCC(F)(F)F (centres undefined) | < 1000 nM | < 10000 nM |
| NC(=O)N1CCC[C@H]1C(=O)Nc1cn2cc(-c3cnc(N)c(C(F)(F)F)c3)ccc2n1 | < 10000 nM | < 10000 nM |
| CC(C)(C)OC(=O)N1CC(C(=O)Nc2cn3cc(-c4cnc(N)c(C(F)(F)F)c4)ccc3n2)C1 | < 1000 nM | < 10000 nM |
| COCCOc1nc(-c2ccc3nc(NC(=O)CN4CCCCC4)cn3c2)cnc1N | < 1000 nM | < 10000 nM |
| Nc1ncc(-c2ccc3nc(NC(=O)CN4CCCCC4)cn3c2)nc1OCC(F)(F)F | < 1000 nM | < 1000 nM |

| SMILES | IC50 (PIK3CA (human) [1]) | EC50 (PIK3CA (human) [2]) |
| --- | --- | --- |
| Nc1ncc(-c2ccc3nc(NC(=O)Cc4cccc5ccccc45)cn3c2)cc1C(F)(F)F | < 1000 nM | < 1000 nM |
| CC(=O)Nc1cn2cc(-c3cnc(N)c(OC4CN(C(=O)OC(C)(C)C)C4)n3)ccc2n1 | < 1000 nM | < 1000 nM |
| NCC(=O)Nc1cn2nc(-c3cnc(N)c(C(F)(F)F)c3)ccc2n1 | < 1000 nM | < 1000 nM |
| CC(=O)Nc1cccc(-c2c(NC(C)=O)nc3ccc(-c4cnc(N)c(C(F)(F)F)c4)cn23)c1 | < 1000 nM | < 25000 nM |
| CC(C)(C)OC(=O)N1CCC[C@@H]1C(=O)Nc1cn2nc(-c3cnc(N)c(C(F)(F)F)c3)ccc2n1 | < 1000 nM | < 25000 nM |
| CC(=O)Nc1cn2cc(-c3cnc(N)c(C(=O)NCCN4CCCC4)n3)ccc2n1 | < 1000 nM | < 1000 nM |
| CC(=O)Nc1cn2nc(-c3cnc(N)c(-c4ccccc4)c3)ccc2n1 | < 1000 nM | < 1000 nM |
| CC(=O)Nc1cn2cc(-c3cnc(N)c(-c4ccccc4C(F)(F)F)c3)ccc2n1 | < 1000 nM | < 10000 nM |
| CC(C)(C)OC(=O)NCC(=O)Nc1cn2cc(-c3cnc(N)c(C(F)(F)F)c3)ccc2n1 | < 1000 nM | < 10000 nM |
| CC(=O)Nc1cn2cc(-c3cnc(N)c(-c4cccc(C(F)(F)F)c4)c3)ccc2n1 | < 1000 nM | < 1000 nM |
| COCCOc1nc(-c2ccc3nc(NC(=O)C4CCN4C(C)=O)cn3c2)cnc1N (centres undefined) | < 1000 nM | < 10000 nM |
| CC(=O)Nc1nc2ccc(-c3cnc(N)c(OCC(F)(F)F)n3)cc2s1 | < 1000 nM | < 1000 nM |
| C[C@H](N)C(=O)Nc1cn2nc(-c3cnc(N)c(C(F)(F)F)c3)ccc2n1 | < 1000 nM | < 10000 nM |
| CC(=O)Nc1nc2ccc(-c3cnc(N)c(C(F)(F)F)c3)c(C)c2s1 | < 1000 nM | < 10000 nM |
| COc1cc(-c2ccc3nc(NC(C)=O)c(Br)n3c2)cnc1N | < 1000 nM | < 10000 nM |
| COc1cc(-c2ccc3nc(NC(C)=O)cn3n2)c(C)nc1N | < 10000 nM | < 25000 nM |
| CC(=O)Nc1cn2cc(-c3cnc(N)c(C=NOC(C)(C)C)c3)ccc2n1 | < 1000 nM | < 25000 nM |
| CC(=O)Nc1cn2nc(-c3cnc(N)c(N4CCOCC4)n3)ccc2n1 | < 1000 nM | < 25000 nM |
| Nc1ccc(-c2ccc3nc(NC(=O)CN4CCOCC4)sc3c2)cn1 | < 1000 nM | < 25000 nM |
| CC(=O)N1CCC[C@H]1C(=O)Nc1cn2cc(-c3cnc(N)c(C(F)(F)F)c3)ccc2n1 | < 1000 nM | < 25000 nM |
| CC(=O)Nc1cn2cc(-c3cnc(N)c(Br)n3)ccc2n1 | < 1000 nM | < 25000 nM |

| SMILES | IC50 (PIK3CA (human) [1]) | EC50 (PIK3CA (human) [2]) |
| --- | --- | --- |
| CC(=O)Nc1nc2ccc(-c3cnc(N)c(C(F)(F)F)c3)cn2c1C#N | < 1000 nM | < 1000 nM |
| COc1nc(-c2ccc3nc(NC(C)=O)cn3n2)cnc1N | < 1000 nM | < 10000 nM |
| NCCCC(=O)Nc1cn2nc(-c3cnc(N)c(C(F)(F)F)c3)ccc2n1 | < 1000 nM | < 25000 nM |
| CC(C)(C)OC(=O)N1CCCCC1CCC(=O)Nc1cn2nc(-c3cnc(N)c(C(F)(F)F)c3)ccc2n1 (centres undefined) | < 1000 nM | < 10000 nM |
| CC(C)(C)OC(=O)N1CC(C(=O)Nc2cn3nc(-c4cnc(N)c(C(F)(F)F)c4)ccc3n2)C1 | < 1000 nM | < 10000 nM |
| CCN1CCC(OCC(=O)Nc2cn3cc(-c4cnc(N)c(C(F)(F)F)c4)ccc3n2)CC1 | < 1000 nM | < 10000 nM |
| CC(C)(C)OC(=O)NCCC(=O)Nc1cn2nc(-c3cnc(N)c(C(F)(F)F)c3)ccc2n1 | < 1000 nM | < 10000 nM |
| CCC(=O)Nc1cn2cc(-c3cnc(N)c(OC)n3)ccc2n1 | < 1000 nM | < 10000 nM |
| Nc1ncc(-c2ccc3nc(NC(=O)c4ccc(N5CCNCC5)nc4)cn3c2)cc1C(F)(F)F | < 1000 nM | < 10000 nM |
| CCOC(=O)CC(=O)Nc1cn2cc(-c3cnc(N)c(C(F)(F)F)c3)ccc2n1 | < 1000 nM | < 10000 nM |
| CC(=O)Nc1cn2c(C)c(-c3cnc(N)c(OCC(F)(F)F)n3)ccc2n1 | < 1000 nM | < 10000 nM |
| CC(=O)Nc1cn2cc(-c3cnc(N)c(OC4CN(C(=O)c5ccccc5)C4)n3)ccc2n1 | < 1000 nM | < 10000 nM |
| Nc1ncc(-c2ccc3nc(NC(=O)N4CC[C@H]4C(=O)O)cn3c2)cc1C(F)(F)F | < 10000 nM | < 25000 nM |
| Nc1ncc(-c2ccc3nc(NC(=O)N4CCC(C(=O)O)C4)cn3c2)cc1C(F)(F)F (centres undefined) | < 1000 nM | < 25000 nM |
| CC(=O)Nc1cn2cc(-c3ccc(N)nc3C)ccc2n1 | < 1000 nM | < 25000 nM |
| CC(=O)Nc1nc2ccc(-c3cnc(N)c(C(F)(F)F)c3)cn2c1-c1ccccc1 | < 1000 nM | < 25000 nM |
| CC(=O)Nc1cn2cc(-c3cnc(N)cc3F)ccc2n1 | < 1000 nM | < 25000 nM |
| CC(=O)Nc1cn2nc(-c3cnc(N)c(-c4ccccc4F)c3)ccc2n1 | < 1000 nM | < 1000 nM |
| CCN(CC)CCOc1cc(-c2ccc3nc(NC(C)=O)cn3c2)cnc1N | < 10000 nM | < 25000 nM |
| COCCOc1nc(-c2ccc3nc(NC(=O)COC)cn3c2)cnc1N | < 1000 nM | < 10000 nM |
| Nc1ncc(-c2ccc3nc(NC(=O)CCO)cn3c2)cc1C(F)(F)F | < 1000 nM | < 10000 nM |

| SMILES | IC50 (PIK3CA (human) [1]) | EC50 (PIK3CA (human) [2]) |
| --- | --- | --- |
| CC(C)(C)OC(=O)N1CC[C@H](OCC(=O)Nc2cn3nc(-c4cnc(N)c(C(F)(F)F)c4)ccc3n2)C1 | < 1000 nM | < 1000 nM |
| Nc1ncc(-c2ccc3nc(NC(=O)CCCn4ccnc4)cn3c2)cc1C(F)(F)F | < 1000 nM | < 10000 nM |
| CC(=O)Nc1cn2nc(-c3cnc(N)cn3)ccc2n1 | < 1000 nM | < 25000 nM |
| Nc1ncc(-c2ccc3nc(NC(=O)c4cccnc4)cn3c2)cc1C(F)(F)F | < 1000 nM | < 10000 nM |
| Nc1ncc(-c2ccc3nc(NC(=O)CCCN4CCCCC4)cn3n2)cc1C(F)(F)F | < 1000 nM | < 1000 nM |
| CNCC(=O)Nc1cn2cc(-c3cnc(N)c(OCCOC)n3)ccc2n1 | < 1000 nM | < 10000 nM |
| Nc1ncc(-c2ccc3nc(NC(=O)CCCN4CCOCC4)cn3n2)cc1C(F)(F)F | < 1000 nM | < 1000 nM |
| CC(=O)Nc1nc2ccc(-c3cnc(N)nc3C(F)(F)F)cc2s1 | < 1000 nM | < 25000 nM |
| CC(=O)Nc1nc2ccc(-c3cnc(N)c(C(F)(F)F)c3)cn2c1CCc1ccccc1 | < 1000 nM | < 10000 nM |
| COc1ccc(CC(=O)Nc2cn3cc(-c4cnc(N)c(C(F)(F)F)c4)ccc3n2)cc1OC | < 1000 nM | < 10000 nM |
| COCC(=O)Nc1cn2cc(-c3cnc(N)c(OCC(F)(F)F)n3)ccc2n1 | < 1000 nM | < 1000 nM |
| Nc1ncc(-c2ccc3nc(NC(=O)N4CCCC4c4ccccn4)cn3c2)cc1C(F)(F)F (centres undefined) | < 1000 nM | < 25000 nM |
| CC(=O)Nc1cn2cc(-c3cnc(N)c(-c4ccccc4F)c3)ccc2n1 | < 1000 nM | < 10000 nM |
| CC(=O)Nc1cn2cc(-c3cnc(N)c(C=NNCC(F)(F)F)c3)ccc2n1 | < 1000 nM | < 1000 nM |
| CC(=O)Nc1cn2cc(-c3ccc(N)nc3)ccc2n1 | < 1000 nM | < 10000 nM |
| CC(=O)Nc1cn2nc(-c3cnc(N)c(-c4ccccc4Oc4ccccc4)c3)ccc2n1 | < 1000 nM | < 10000 nM |
| CC(=O)Nc1cn2cc(-c3cnc(N)c(-c4ccccc4)n3)ccc2n1 | < 1000 nM | < 10000 nM |
| CC(=O)Nc1cn2nc(-c3cnc(N)c(-c4ccn(C)n4)c3)ccc2n1 | < 1000 nM | < 1000 nM |
| Nc1ncc(-c2ccc3nc(NC(=O)[C@H]4CCCCN4)cn3c2)cc1C(F)(F)F | < 1000 nM | < 10000 nM |
